Source: PubChem BioAssay AID310 (DTP/NCI, 2004)
Values joined by “and” are separate entries in the source; they are usually repeats but may differ in a detail not shown here. Equal entries are not always repeated. Records with an inconclusive call do not appear.

Tested on: C3AKF1 mice, osteogenic sarcoma HE10734 s.c., tumor weight T/C
Assay: NCI In Vivo Anticancer Drug Screen. Data for tumor model Osteogenic Sarcoma HE 10734 (subcutaneous) in C3AKF1 (CHKRF1) mice
Conditions: endpoint: mean tumor weight, schedule: Q01DX010 (ip), higher = larger tumour
Protocol: The antitumor activity of compounds was measured in mice bearing transplantable tumors. Survival or tumor size were measured and the results are expressed as the measurement made in the treated group (T) divided by the measurement made in the vehicle treated control group (C). The tumor model used in this assay is Osteogenic Sarcoma HE 10734 (subcutaneous) in C3AKF1 (CHKRF1) mice

[1] = dose: 50.0 mg/kg/injection, vehicle: carboxymethylcellulose (CMC)
[2] = dose: 3.0 mg/kg/injection, vehicle: saline
[3] = dose: 50.0 mg/kg/injection, vehicle: saline
[4] = dose: 12.5 mg/kg/injection, vehicle: carboxymethylcellulose (CMC)
[5] = dose: 25.0 mg/kg/injection, vehicle: carboxymethylcellulose (CMC)
[6] = dose: 16.0 mg/kg/injection, vehicle: carboxymethylcellulose (CMC)
[7] = dose: 6.0 mg/kg/injection, vehicle: saline
[8] = dose: 125.0 mg/kg/injection, vehicle: saline
[9] = dose: 250.0 mg/kg/injection, vehicle: saline
[10] = dose: 500.0 mg/kg/injection, vehicle: saline
[11] = dose: 62.0 mg/kg/injection, vehicle: saline

## CN(C)c1ccc(/C=C\c2ccnc3ccccc23)cc1
dose: 2.5 mg/kg/injection, vehicle: carboxymethylcellulose (CMC)
  T/C: 50 % of control
dose: 14.0 mg/kg/injection, vehicle: carboxymethylcellulose (CMC)
  T/C: 68 % of control
dose: 22.0 mg/kg/injection, vehicle: carboxymethylcellulose (CMC)
  T/C: 44 % of control
[1]
  T/C: 48 % of control
dose: 75.0 mg/kg/injection, vehicle: carboxymethylcellulose (CMC)
  T/C: 27 % of control
dose: 100.0 mg/kg/injection, vehicle: carboxymethylcellulose (CMC)
  T/C: 67 % of control

## COc1ccc(Nc2ccnc3cc(Cl)ccc23)cc1CN(CCCl)CCCl
dose: 0.75 mg/kg/injection, vehicle: saline
  T/C: 73 % of control
dose: 1.5 mg/kg/injection, vehicle: saline
  T/C: 57 % of control
[2]
  T/C: 69 % of control

## NC(N)=N/N=C/C=N/N=C(N)N
dose: 30.0 mg/kg/injection, vehicle: carboxymethylcellulose (CMC)
  T/C: 81 % of control

## CCCCCCCCCCCCO[P+](=O)OCCCCCCCCCCCC
dose: 65.0 mg/kg/injection, vehicle: carboxymethylcellulose (CMC)
  T/C: 81 % of control
dose: 95.0 mg/kg/injection, vehicle: carboxymethylcellulose (CMC)
  T/C: 55 % of control
dose: 145.0 mg/kg/injection, vehicle: carboxymethylcellulose (CMC)
  T/C: 51 % of control
dose: 220.0 mg/kg/injection, vehicle: carboxymethylcellulose (CMC)
  T/C: 48 % of control
dose: 222.0 mg/kg/injection, vehicle: carboxymethylcellulose (CMC)
  T/C: 36 % of control

## CCCC(Sc1nc(N)nc2nc[nH]c12)C(=O)O (stereo not drawn)
[3]
  T/C: 80 % of control
dose: 100.0 mg/kg/injection, vehicle: saline
  T/C: 53 % of control
dose: 200.0 mg/kg/injection, vehicle: saline
  T/C: 40 % of control
dose: 400.0 mg/kg/injection, vehicle: saline
  T/C: 17 % of control

## O=C(O)CC(O)(CC(=O)O)C(=O)O.[Ga]
[4]
  T/C: 84 % of control
[5]
  T/C: 84 % of control
[1]
  T/C: 39 % of control

## O=C(O)C1(NO)CCCC1
dose: 15.0 mg/kg/injection, vehicle: saline
  T/C: 88 % of control
dose: 23.0 mg/kg/injection, vehicle: saline
  T/C: 112 % of control
dose: 35.0 mg/kg/injection, vehicle: saline
  T/C: 71 % of control
dose: 112.0 mg/kg/injection, vehicle: saline
  T/C: 29 % of control

## Cc1ccc(N2CCN(CCCN3CCN(c4ccc(Cl)cc4)CC3)CC2)cc1
dose: 6.25 mg/kg/injection, vehicle: carboxymethylcellulose (CMC)
  T/C: 97 % of control
[4]
  T/C: 77 % of control
[5]
  T/C: 102 % of control

## CC(/C=N/N=C(N)N)=N/N=C(N)N
dose: 12.5 mg/kg/injection, vehicle: saline
  T/C: 85 % of control
dose: 25.0 mg/kg/injection, vehicle: saline
  T/C: 63 % of control

## CCC(=O)NC1=C(N2CC2)C(=O)C(NC(=O)CC)=C(N2CC2)C1=O
dose: 0.26 mg/kg/injection, vehicle: saline
  T/C: 118 % of control
dose: 0.4 mg/kg/injection, vehicle: saline
  T/C: 77 % of control
dose: 1.2 mg/kg/injection, vehicle: saline
  T/C: 30 % of control

## CN(N=O)C(N)=O
dose: 10.0 mg/kg/injection, vehicle: carboxymethylcellulose (CMC)
  T/C: 47 % of control and 55 % of control
[6]
  T/C: 34 % of control and 39 % of control
[5]
  T/C: 38 % of control

## CCCNC(=NC)c1ccc(NC(=O)c2ccc(C(=O)Nc3ccc(C(=NC)NCCC)cc3)cc2)cc1
[2]
  T/C: 91 % of control
[7]
  T/C: 46 % of control
dose: 12.0 mg/kg/injection, vehicle: saline
  T/C: 46 % of control

## O=C(Nc1ccc(C2=NCCN2)cc1)c1ccc(C(=O)Nc2ccc(C3=NCCN3)cc2)c(NC(=O)c2ccc(C(=O)Nc3cc(C(=O)Nc4ccc(C5=NCCN5)cc4)ccc3C(=O)Nc3ccc(C4=NCCN4)cc3)cc2)c1
dose: 28.0 mg/kg/injection, vehicle: saline
  T/C: 111 % of control
dose: 45.0 mg/kg/injection, vehicle: saline
  T/C: 104 % of control
dose: 65.0 mg/kg/injection, vehicle: saline
  T/C: 118 % of control
dose: 95.0 mg/kg/injection, vehicle: saline
  T/C: 98 % of control and 107 % of control
dose: 140.0 mg/kg/injection, vehicle: saline
  T/C: 93 % of control
dose: 210.0 mg/kg/injection, vehicle: saline
  T/C: 89 % of control
dose: 315.0 mg/kg/injection, vehicle: saline
  T/C: 110 % of control

## CCc1c(CC(=O)O)c2cc(C)ccc2n1Cc1ccc(Cl)cc1
[3]
  T/C: 79 % of control

## O=C(NO)c1ccncc1
[8]
  T/C: 113 % of control
[9]
  T/C: 123 % of control
[10]
  T/C: 102 % of control

## Nc1nc(SCc2ccc([N+](=O)[O-])cc2)c2[nH]cnc2n1
[8]
  T/C: 86 % of control
[9]
  T/C: 89 % of control
[10]
  T/C: 58 % of control
dose: 1000.0 mg/kg/injection, vehicle: saline
  T/C: 59 % of control

## CCOC(=O)Sc1ncnc2nc[nH]c12
dose: 112.0 mg/kg/injection, vehicle: carboxymethylcellulose (CMC)
  T/C: 13 % of control

## N#CCSc1nc(N)nc2nc[nH]c12
dose: 2.0 mg/kg/injection, vehicle: carboxymethylcellulose (CMC)
  T/C: 90 % of control
dose: 4.0 mg/kg/injection, vehicle: carboxymethylcellulose (CMC)
  T/C: 107 % of control
dose: 8.0 mg/kg/injection, vehicle: carboxymethylcellulose (CMC)
  T/C: 86 % of control
[6]
  T/C: 91 % of control
dose: 24.0 mg/kg/injection, vehicle: carboxymethylcellulose (CMC)
  T/C: 113 % of control
dose: 35.0 mg/kg/injection, vehicle: carboxymethylcellulose (CMC)
  T/C: 93 % of control
dose: 55.0 mg/kg/injection, vehicle: carboxymethylcellulose (CMC)
  T/C: 90 % of control and 100 % of control
dose: 85.0 mg/kg/injection, vehicle: carboxymethylcellulose (CMC)
  T/C: 44 % of control
dose: 125.0 mg/kg/injection, vehicle: carboxymethylcellulose (CMC)
  T/C: 22 % of control

## CC(C)CCSc1nc(N)nc2nc[nH]c12
[11]
  T/C: 64 % of control
[8]
  T/C: 75 % of control

## CCCCn1cnc2c(=S)nc(N)[nH]c21
[2]
  T/C: 49 % of control
[7]
  T/C: 51 % of control
dose: 11.0 mg/kg/injection, vehicle: saline
  T/C: 29 % of control
dose: 22.0 mg/kg/injection, vehicle: saline
  T/C: 7 % of control

## O=S1(=O)CCCO1
dose: 40.0 mg/kg/injection, vehicle: carboxymethylcellulose (CMC)
  T/C: 75 % of control
dose: 80.0 mg/kg/injection, vehicle: carboxymethylcellulose (CMC)
  T/C: 76 % of control

## Nc1nc(SCc2ccccc2Cl)c2ncn(C3OC(CO)C(O)C3O)c2n1 (stereo not drawn)
[4]
  T/C: 90 % of control
[5]
  T/C: 81 % of control
[1]
  T/C: 61 % of control

## O=c1n(CCCl)c(=O)n(CCCl)c(=O)n1CCCl
dose: 31.0 mg/kg/injection, vehicle: saline
  T/C: 81 % of control
[11]
  T/C: 83 % of control
[8]
  T/C: 75 % of control
dose: 370.0 mg/kg/injection, vehicle: saline
  T/C: 116 % of control

## CC1(C)CC(C)(c2ccccc2)c2ccccc21 (stereo not drawn)
dose: 75.0 mg/kg/injection, vehicle: saline
  T/C: 92 % of control
dose: 150.0 mg/kg/injection, vehicle: saline
  T/C: 70 % of control
dose: 300.0 mg/kg/injection, vehicle: saline
  T/C: 52 % of control
